# In US20020086027A1, “Composition and method for enhancing immunological memory response” (priority 1998, published 2002):
# What was measured:
# human T cells [1] = test: Response of primed cells to IL-2 or PHA; assay type: cell-based; settings: for response of primed cells to PHA: primed in presence vs absence of 100 ug/ml drug
# Protocol: For priming in vitro, responder PBMCs were incubated for 72 or 144 h at a ratio of either 1:1 or 2:1 respectively, with stimulator PBMCs. Where appropriate, CsA. Aph. and/or Trental were added at the concentrations indicated, of PFA-fixed PBMCs were used instead.
# CD25+ CD4 T cells = test: Flow cytometry of CD25 and Fas (CD95) on primed cells; assay type: cell-based, human
# Protocol: (§1) For analysis of cell surface markers, primed cell populations separated on Ficoll-Paque gradients were used. […] Briefly, 1-3×10^5 cells per well were stained with primary antibodies at 4° C., followed by appropriately labeled secondary reagents if required. Samples were analyzed using a Bryte flow cytometer (bio-Rad, Hemel Hampstead, UK). Antibodies to the T cell markers CD3 (OKT3), CD4 (OKT4), and to the activation markers CD25 and Fas (CD95) were used for staining. To detect apoptosis using propidium iodide (PI, Sigma Chemical Co.), antibody-stained cells were fixed and permeabilized with 70% ethanol, washed, and PI […] added just before cytometric analysis. Data were analyzed using FlowJo software (Treestar, San Jose, Calif.).
# The phenotype of CD4 T cells activated during priming in vitro was examined next using various markers associated with T cell activation. Antibodies against CD25 (IL-2Ra), CD26, CD45RO, CD69 and gp240 were used, but except for CD25, none of the other markers gave consistent and reliable results (data not shown). CD25 expression on CD4 T cells in the responder populations was examined in a two-color flow cytometric analysis at two separate time points,—at the end of six days of priming and after two further rest days in culture after washing and resuspension in resh medium without any stimuli. Most CD25-expressing cells in the primed cultures were CD4 T cells. […] The frequency of CD25 expression increased in the PBMC-primed responders (FIG. 17B) and this percentage was lower if POX (100 μg/ml) was present during priming (FIG. 17C). […] Similar data were observed if dbcAMP was present during priming (data not shown). It can be seen that the proportion of CD25* cells was reproducibly lower if POX was present during priming with allo-PBMCs. However, after 48 hours of rest in culture, the frequency of CD25* cells declined in the populations primed in the absence of POX, while it went up in the group primed under POX cover.
# CD25+ primed T cells = test: Propidium iodide staining for apoptosis of CD25+ primed T cells; assay type: cell-based, human; settings: over the 48 hour rest period after priming with drug
# Protocol: as §1
# The differences between the kinetics of CD25 expression over two days of rest culture prompted the question of whether this was linked to effects of POX on the survival of T cells activated during priming. Almost all CD25^+ cells generated during priming were CD4 T cells (FIG. 17A). therefore, responder populations primed variously were stained in a two-color flow cytometric analysis for CD25 and Fas, since Fas engagement is involved in activation induced T cell death. The frequency and level of Fas expression in the CD25^+ population was unchanged in the presence (FIG. 20, panels B and D) or absence (panels A and C) of POX during priming. […]
# [2] = orally administered; cited from earlier work
# T cell lines = test: Intracellular cAMP levels in T cell lines; assay type: cell-based; settings: preliminary experiments
# Source text: Several effects of POX on T cell signaling pathways have been reported. […] A major consequence of inhibition of phosphodiesterase is an increase in the levels of intracellular cAMP. […] This raises the possibility that although dbcAMP mimics POX in its effects on T cell priming, the precise molecular pathways involved may differ.
# [3] = tested on: experimental autoimmune encephalomyelitis; settings: rat, in vivo; cited from earlier work
# human T cells [4] = test: Primary alloproliferative response of responder PBMCs to irradiated MHC-mismatched stimulator PBMCs ([3H]thymidine incorporation); assay type: cell-based
# Protocol: In this system, we have used responses to first exposure as an indication of primary responses. When cells stimulated in this fashion are rested in culture and then restimulated with the same stimulator PBMCs, the 'recall' response measured are taken as an indication of immune memory. Proliferation is measured by the incorporation of radioactive tritiated thymidine in dividing cells. PBMCs from HLA-mismatched individuals were separated using density-gradient centrifugation on Ficoll-Paque (Pharmacia, Uppsala, Sweden). Stimulator PBMCs were used in titrated doses after g-irradiation (200 rads). For the primary proliferative alloresponses, stimulator in graded doses were used with 1-3×10^5 responders per well in 200 μl of RPMI-1640 (Life Technologies, Grand Island, N.Y.) fortified with L-glutamine (Life Technologies) and antibiotics, containing 10% heat-inactivated responder autologous serum. Cultures were incubated in a CO2 atmosphere for five days, pulsed with 0.5 uCi of (H^3)-thymidine (New England Nuclear, Boston, Mass.) for the last 8-12 hours of the assay and harvested onto glass fiber filters for counting cell-incorporated thymidine (Betaplate; Wallac, Finland). results are expressed as mean cpm±SE for triplicate cultures. Dibutyryl cyclic AMP (dbcAMP), pentoxifylline (POX), aphidicolin (all from Sigma Chemical Co., St Louis, Mo.) and recombinant IL-2 (Boehringer Manheim Corp., Manheim Germany) were added singly or together to the culture in various doses as indicated during priming and in primary alloresponse assays. […] Sigma Chemical Co.) at room temperature for 20 minutes, washed extensively and used. PBMCs from MHC-mismatched donors were used as responder-stimulator pairs. Stimulator cells were used after γ-irradiation (200 rad) at various concentrations, as shown. Proliferation assays were set up as parallel cultures and were pulsed and harvested as below on different days when necessary for the analyses of the kinetics of the response. Where appropriate, cyclosporin A (CsA, Sandoz, Milan, Italy), aphidicolin (Aph, Sigma Chemical Co., and/or pentoxifylline ([…], Sigma Chemical Co.) Were added at the concentrations indicated, or PFA-fixed PBMCs were used. The plated were pulsed with 0.5 to 1 μCi of (^3H)thymidine ([^3H]TdR. Amersham, Little Chalfont, U.K.) During the last 12 to 16 h of the assay (4 days for a recall assay and 6 days for a primary assay, unless indicated otherwise). [^3H] TdR incorporation was measured by harvesting the cultures on glass-fibers and counting in a scintillation counter (Betaplate: LKB-Pharmacia. Uppsala, […]). The results are expressed as mean cpm±SE of triplicate cultures.
smiles,measurement,setting,value
"CC(=O)CCCCn1c(=O)c2c(ncn2C)n(C)c1=O [POX, pentoxifylline]",response of primed cells to IL-2,human T cells [1]; primed in presence vs absence of 100 μg/ml Trental,to the same extent
same,response of primed cells to PHA,human T cells [1],does not bring about any enhancement
same,response of primed cells to PHA,human T cells [1]; listed as Trental,comparable
same,frequency of CD25 expression,CD25+ CD4 T cells; after two further rest days in culture without stimuli,increased frequency
same,frequency of CD25 expression,"CD25+ CD4 T cells; at end of six days of priming, POX 100 μg/ml",lower
same,frequency and level of Fas expression in CD25+ population,CD25+ CD4 T cells; presence vs absence of POX during priming,unchanged
same,proportion of apoptotic cells in the CD25+ population,CD25+ primed T cells,does not increase significantly
same,LD50,[2],about 1385 milligrams per kilogram body weight
same,intracellular cAMP levels,T cell lines,does not increase
same,protection against EAE,[3],significant protection
same,primary proliferative response,human T cells [4]; Trental 100 ug/ml added to cells on 1 μg/ml Aph,further decreases
same,kinetics of primary response,"human T cells [4]; days 4-10, drugs present throughout",declines equivalently
same,primary proliferative response,human T cells [4]; drug 100 ug/ml present during primary alloresponse,declines
same,primary proliferative response,"human T cells [4]; drug 100 ug/ml present during primary alloresponse, listed as Trental",reduced significantly
same,primary response after drug removal,"human T cells [4]; drugs removed on day 6, pulsed days 8 and 10",no increase
same,primary proliferative response,"human T cells [4]; increasing doses 1-300 μg/ml, preliminary titrations",decrease
same,primary response to PF-fixed PBMCs,"human T cells [4]; stimulators fixed with 0.05% PF, POX 100 ug/ml",not enhanced
